What was measured:
[1] = tested on: Paw edema induced by carrageenin; experiment: Carrageenin Foot Edema (antiinflammatory activity); type: in vivo, male Sprague-Dawley rats; settings: Dose: 32 mg/kg, orally 60 minutes before phlogogen; edema volume 3 hours after 1% carrageenin; rats
Procedure: (1) Carrageenin Foot Edema
Five male Sprague-Dawley rats weighing about 200 g were used per group.
Paw edema was induced by subplantar injection of 1% carrageenin (0.1 ml/rat) into the right hind paw. The test drug was suspended in 0.5% methylcellulose and administered orally 60 minutes before phlogogen. Paw volume was measured with plethysmometer (Ugo Bazil Co., Ltd.) by water displacement immersing the paw to the lateral malleolus. The difference of paw volume before and 3 hours after the phlogogen was designated as edema volume.
The data were analyzed statistically by student's t-test.

[2] = tested on: writhing syndrome induced by acetic acid; experiment: Acetic Acid Induced Writhing (analgesic activity); type: in vivo, male ddY strain mice; settings: Dose: 32 mg/kg, orally 60 minutes before 0.6% acetic acid i.p.; observed from 3 to 13 minutes; mice
Procedure: (1) Acetic Acid Induced Writhing
Ten male ddY strain mice were used per group. To estimate the frequency of writhing syndrome, the animals were observed from 3 to 13 minutes after an intraperitoneal injection of 0.2 ml/10 g of 0.6% acetic acid. The drugs were given orally 60 minutes before acetic acid. The frequency of writhing syndrome in the treated animals was compared with that in the nontreated control animals.

Row | Structure (SMILES) | Inhibition (%) of carrageenin foot edema [1] | Inhibition (%) of acetic acid induced writhing [2]
1 | O=C(Nc1ccccn1)NN1CC=CCC1 [Compound C, N-[(2-Pyridylcarbamoyl)amino]-1,2,3,6-tetrahydropyridine] | 50.9% | 
2 | O=C(Nc1ccc(Cl)nc1)NN1CC=CCC1 [Compound F, N-[[(2-Chloropyridin-5-yl)carbamoyl]amino]-1,2,3,6-tetrahydropyridine] | 49.9% | 75.1%
3 | O=C(Nc1cnccn1)NN1CC=CCC1 [Compound E, N-(Pyrazinylcarbamoylamino)-1,2,3,6-tetrahydropyridine] | 54.7% | 
4 | O=C(NN1CC=CCC1)NN1CC=CCC1 [Compound H, N,N'-[Bis-(1,2,3,6-tetrahydropyridin-1-yl)]urea] |  | 82.0%
5 | O=C(Nc1ccncc1)NN1CC=CCC1 [Compound A, N-[(4-Pyridylcarbamoyl)amino]-1,2,3,6-tetrahydropyridine] | 41.4% | 73.4%
6 | O=C(NN1CC=CCC1)NN1CCCC1 [Compound G, N-[(1-Pyrrolidinylcarbamoyl)amino]-1,2,3,6-tetrahydropyridine] |  | 84.7%
7 | O=C(Nc1ccncn1)NN1CC=CCC1 [Compound D, N-[(4-Pyrimidinylcarbamoyl)amino]-1,2,3,6-tetrahydropyridine] | 48.0% | 68.5%
8 | O=C(Nc1cccnc1)NN1CC=CCC1 [Compound B, N-[(3-Pyridylcarbamoyl)amino]-1,2,3,6-tetrahydropyridine] | 45.9% | 95.5%

From US4694004A, “Semicarbazide derivatives, processes for preparation thereof and pharmaceutical composition comprising the same” (Fujisawa Pharmaceutical Co., Ltd., priority 1984, dated 1987)
